What was measured:
[1] = TgCRND8 (outbred C3H/C57B16 background), mouse, in vivo
[2] = Brain and CSF levels of inositols after one month ad libitum dosing (GC/MS), Example 2; assay type: in vivo, TgCRND8 mice; details: TgCRND8 mice, myo-cyclohexanehexyl ad libitum for one month
Description: Study drugs were administered either at 30 mg/kg by oral gavage, or ad libitum by dissolution in drinking water. For administration in drinking water, study drugs were dissolved at 10 mg/ml. The average amount of water taken from the bottle was 3 ml daily per animal. The average mouse weight was 33 g. […] Quantification of scyllo-cyclohexanehexyl and myo-inositol. Scyllo-cyclohexanehexyl and myo-cyclohexanehexyl levels in the brain and CSF were analyzed using gas chromatography/mass spectrometry. D-chiro-inositol was used as an internal control, as it is not present in these biological samples. Derivatization: To increase the volatility and thermal stability of these compounds and to allow for proper peak separation, these samples need to first be derivatized. The derivatization was adapted from a method presented previously (Shetty, H U, et al, 1995, Anal. Biochem. 224:279-85), where the hydroxyl groups of the cyclohexanehexyl were replaced with acetyl groups. […] Similarly, a 5-15 μl sample of CSF was mixed with 1 ml of methanol and allowed to stand at room temperature for 5 minutes. The resulting suspension was centrifuged (5 min, 5000×g) and the supernatant transferred to a glass tube (Teflon-lined cap). […] These samples were then evaporated to complete dryness (Speedvac; 60° C.). […] This mixture was flushed with dry nitrogen, securely capped and the tubes heated (80° C.; 30 min). Following derivatization, samples were cooled (RT) and the unreacted acetylating reagent evaporated using a steady stream of nitrogen gas. The derivatized products were re-dissolved (4 ml; hexane-ethyl acetate (80:20, v/v)) and washed with 1 ml of 5% sodium hydrogencarbonate solution. […] The residue was reconstituted in 100 μl; ethyl acetate. 1 μL of this was injected into the GC/MS system. A similar procedure was followed using stock concentrations of scyllo- and myo-cyclohexanehexols, which were then used to generate concentration curves (in this case the internal standard was derivatized separately and then added). GC/MS was performed using a Perkin Elmer TurboMass Autosystem XL, with a quadrupole mass spectrometer and electron ionization. Gas chromatography was performed using a 30 m×0.25 mm×0.25 μm ZB 5 (5% diphenyl/95% dimethylpolysiloxane) column, using the carrier gas Helium (1 ml/min). Samples were injected with the split set to 50 at 1 min and 0 at 5 min, the injector temperature was set at 300° C. and an initial oven temperature of 80° C. After a hold of 1 min, the temperature was ramped at 45° C./min to 187° C. and held there for 15 min. […] Sample peaks were analyzed using selected-ion monitoring, using m/z 168 for determining cyclohexanehexyl levels in the brain and CSF and m/z 373 for determining cyclohexanehexyl levels in plasma, as monitoring the larger ion reduced noise. […]

TgCRND8 mice = details: despite in vitro efficacy
[3] = Orally administered tritiated-inositol uptake in plasma and brain (FIG. 16); assay type: in vivo
Description: FIG. 16. Bioavailability of scyllo- (solid line) and myo-inositol (dashed line) in plasma and brain, determined using orally administered tritiated-inositol uptake studies. […] Brain levels also rose rapidly and were maximal at 8 h and 32 h, respectively.

With O[C@H]1[C@H](O)[C@@H](O)[C@H](O)[C@@H](O)[C@H]1O [myo-inositol, reference compound] the “increase in brain myo inositol levels over untreated controls” value [1] was 1.2 fold, the “increase of myo-cyclohexanehexyl level in brain vs untreated” value ([2]; p<0.001) was 20% and the “levels of myo-cyclohexanehexyl in CSF vs untreated” value ([2]; p=0.35) was “did not show any significant changes”. The “efficacy for the treatment of TgCRND8 mice” value (TgCRND8 mice) was “not shown to be effective”, the “time of maximal brain levels” value [3] was 8 h and the “time of peak plasma levels post administration” value [3] was 2 h.
